Experiments:
rumen fluid = assay: In vitro fermentation of polyols in an artificial rumen environment using rumen fluid as inoculum; conditions: for extent of fermentation: by 24 hours, judged from final gas volume and VFA; for extent of fermentation / fermentation rate: in words; for fermentation rate: in vitro rumen fermentation, gas production monitored every 30 minutes
Method: Fermentations were performed on two separate days where gas production was monitored every 30 minutes. In addition, pH, ammonia (NH3), and volatile fatty acid (“VFA”) production were measured after 24 hours. Duplicate samples of each compound were evaluated using in vitro rumen fermentations.
Duplicate samples of these compounds were fermented in vitro using rumen fluid as inoculum. Samples were weighed into 150 mL serum bottles (0.3 grams per bottle) using a CO2 atmosphere to provide an anaerobic environment. A standard buffered media was prepared (no additional feed matter was included in the fermentation), degassed, and added to the serum bottles (see, Goering, H. K., and P. J. Van Soest, “Forage Fiber Analyses (Apparatus, Reagents, Procedures, and Some Applications),” Agric. Handbook, No 379, ARS-USDA, Washington, D.C., 1970). Rumen fluid was obtained from a dairy cow, filtered, and added to the serum bottles as 20% of the total fluid addition (30 mL total fluid volume). The serum bottles were sealed, placed in an incubator, and the fermentation was allowed to proceed. Fermentations were performed on two separate days, during which time gas production was monitored every 30 minutes and pH, NH3, and VFA production measured after 24 hours.

[1] = system: circulating non-esterified fatty acids (NEFA); assay: Circulating non-esterified fatty acids in lambs fed a polyol supplement; type: in vivo; conditions: lambs fed restricted diet (75% of maintenance energy requirements), supplement 25 to 45 grams/lamb, blood 1-24 hours after dose
Method: In this Example, the effect of a diet comprising an isolated or purified polyol on the level of circulating non-esterified fatty acids (“NEFA”) in lambs was examined.
Four lambs were used in this Example. The lambs were fed a basal diet the first week followed by at least 4 weeks during which the supplement treatments were evaluated. The lambs were fed a diet supplement comprising sorbitan during the second and third weeks of the treatment. The lambs were fed a diet supplement comprising polyglycerol during the fourth and fifth weeks of the treatment. The diet supplements were fed separate from the basal diet feed.

Row | Structure (SMILES) | extent of fermentation (rumen fluid) | change in circulating NEFA levels [1] | rumen escape (rumen fluid; estimated from rate of in vitro fermentation / gas production, by weight escaping fermentation in the rumen) | fermentation rate (rumen fluid)
1 | OCC(O)CO [Glycerol, glycerol] | largely fermented by 24 hours | – | – | –
2 | OC[C@@H](O)[C@H]1OC[C@H](O)[C@H]1O [Sorbitan, 1,4-anhydro-D-sorbitol] | – | decrease in circulating NEFA levels | greater than 80% | slower than glucose, sorbitol, or glycerol
3 | OC[C@@H](O)[C@@H](O)[C@H](O)[C@@H](O)CO [Sorbitol, sorbitol] | largely fermented by 24 hours | – | – | slower than glucose

From US8933133B2, “Animal feeds containing polyols” (ADM Alliance Nutrition, Inc., priority 2006, dated 2015)
